In patent US9266883B2, “Ring-fused bicyclic pyridyl derivatives as FGFR4 inhibitors” (Novartis AG, priority 2013, dated 2016):
Several values for one entry are separate records, joined by “and”; a condition that tells them apart may be missing. Equal entries are not always repeated. Where two headings read alike, the source gives them in different places.

Assays:
[1] = target: FGFR4 (GST-FGFR4(388-802)) (Homo sapiens (Human), UniProt P22455); assay: In-vitro biochemical kinase assay for FGFR4 (Caliper microfluidic mobility shift)
Tel-FGFR4 = Tel-FGFR4 (Homo sapiens (Human), UniProt P22455); assay: In vitro cellular kinase assay for FGFR4 (BaF3-Tel-FGFR4 cells, MSD capture ELISA of tyrosine phosphorylation); format: cell-based
[2] = biochemical FGFR4 assay, read-out: Biochemical IC50
[3] = Cellular BaF3 FGFR4 assay, read-out: Cellular IC50
[4] = read-out: Biochemical FGFR4 IC50
[5] = BaF3-Tel-FGFR4 cells, 1 hour incubation, read-out: Cellular BaF3 FGFR4 IC50

Tel-FGFR4, sequence (P22455 other isoform, or with tags, fused parts or gaps): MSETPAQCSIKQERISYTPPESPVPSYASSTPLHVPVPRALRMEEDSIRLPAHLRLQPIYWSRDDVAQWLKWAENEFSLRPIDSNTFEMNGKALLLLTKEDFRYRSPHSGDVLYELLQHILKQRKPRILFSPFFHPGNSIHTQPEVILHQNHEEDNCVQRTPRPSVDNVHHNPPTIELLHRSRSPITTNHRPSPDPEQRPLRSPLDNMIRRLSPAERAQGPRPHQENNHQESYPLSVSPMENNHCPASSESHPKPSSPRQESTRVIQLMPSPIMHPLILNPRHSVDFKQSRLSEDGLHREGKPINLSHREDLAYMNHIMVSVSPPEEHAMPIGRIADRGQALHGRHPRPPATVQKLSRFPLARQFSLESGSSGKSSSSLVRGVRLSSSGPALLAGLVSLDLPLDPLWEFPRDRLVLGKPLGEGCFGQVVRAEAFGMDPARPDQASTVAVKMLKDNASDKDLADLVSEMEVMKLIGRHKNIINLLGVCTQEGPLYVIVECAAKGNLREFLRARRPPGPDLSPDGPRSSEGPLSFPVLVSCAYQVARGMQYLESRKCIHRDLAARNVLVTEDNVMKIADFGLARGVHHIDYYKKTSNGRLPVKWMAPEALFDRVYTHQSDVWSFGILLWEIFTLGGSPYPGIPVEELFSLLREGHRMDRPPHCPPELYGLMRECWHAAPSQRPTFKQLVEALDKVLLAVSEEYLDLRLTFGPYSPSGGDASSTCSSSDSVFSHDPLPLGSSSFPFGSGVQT
FGFR4 (GST-FGFR4(388-802)), sequence (P22455 388-802): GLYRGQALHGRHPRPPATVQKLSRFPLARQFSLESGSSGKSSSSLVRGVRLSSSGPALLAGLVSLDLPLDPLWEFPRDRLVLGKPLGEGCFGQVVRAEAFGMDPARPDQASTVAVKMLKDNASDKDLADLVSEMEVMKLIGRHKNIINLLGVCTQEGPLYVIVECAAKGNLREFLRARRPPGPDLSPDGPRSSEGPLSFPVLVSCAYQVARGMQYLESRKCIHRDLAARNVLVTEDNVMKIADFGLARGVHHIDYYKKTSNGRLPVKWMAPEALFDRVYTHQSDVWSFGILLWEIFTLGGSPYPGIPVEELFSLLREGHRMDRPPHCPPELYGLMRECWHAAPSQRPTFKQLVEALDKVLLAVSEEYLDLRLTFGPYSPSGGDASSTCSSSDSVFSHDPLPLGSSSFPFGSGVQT

IC50 [1, 2] [nM] | IC50 (Tel-FGFR4; [3]) [nM] | Compound | IC50 [1, 4] [nM] | IC50 (Tel-FGFR4; [5])
0.2 | 10.2 | CCNc1cc(NC(=O)N2CCCc3cc(CN(CC)C(=O)CN(C)C)c(C=O)nc32)ncc1C#N [N-(5-cyano-4-(ethylamino)pyridin-2-yl)-6-((2-(dimethylamino)-N-ethylacetamido)methyl)-7-formyl-3,4-dihydro-1,8-naphthyridine-1(2H)-carboxamide] | – | –
2 | 8.6 | CC(C)Nc1cc(NC(=O)N2CCCc3cc(CO)c(C=O)nc32)ncc1C#N [N-(5-cyano-4-(isopropylamino)pyridin-2-yl)-7-formyl-6-(hydroxymethyl)-3,4-dihydro-1,8-naphthyridine-1(2H)-carboxamide] | – | –
5.9 | 37 | COC(C)(C)CNc1cc(NC(=O)N2CCCc3cc(C(F)F)c(C=O)nc32)ncc1C#N [N-(5-cyano-4-((2-methoxy-2-methylpropyl)amino)pyridin-2-yl)-6-(difluoromethyl)-7-formyl-3,4-dihydro-1,8-naphthyridine-1(2H)-carboxamide] | – | –
8.9 | 22.5 | CCc1cc(NC(=O)N2CCCc3cc(CN4CCN(C)CC4=O)c(C=O)nc32)ncc1C#N [N-(5-cyano-4-ethylpyridin-2-yl)-7-formyl-6-((4-methyl-2-oxopiperazin-1-yl)methyl)-3,4-dihydro-1,8-naphthyridine-1(2H)-carboxamide] | – | –
2.8 | 9.1 | CC(C)Oc1cc(NC(=O)N2CCCc3cc(CO)c(C=O)nc32)ncc1C#N [N-(5-cyano-4-isopropoxypyridin-2-yl)-7-formyl-6-(hydroxymethyl)-3,4-dihydro-1,8-naphthyridine-1(2H)-carboxamide] | – | –
3.4 | 12 | CCNc1cc(NC(=O)N2CCCc3cc(CN4CCN(C)CC4=O)c(C=O)nc32)ncc1C#N [N-(5-cyano-4-(ethylamino)pyridin-2-yl)-7-formyl-6-((4-methyl-2-oxopiperazin-1-yl)methyl)-3,4-dihydro-1,8-naphthyridine-1(2H)-carboxamide] | – | –
1.3 | 20.3 | CC(C)Nc1cc(NC(=O)N2CCCc3cc(C(F)F)c(C=O)nc32)ncc1C#N [N-(5-cyano-4-(isopropylamino)pyridin-2-yl)-6-(difluoromethyl)-7-formyl-3,4-dihydro-1,8-naphthyridine-1(2H)-carboxamide] | – | –
3.1 | 14.5 | COCCNc1cc(NC(=O)N2CCCc3cc(-c4ccncc4)c(C=O)nc32)ncc1C#N [N-(5-cyano-4-((2-methoxyethyl)amino)pyridin-2-yl)-7-formyl-6-(pyridin-4-yl)-3,4-dihydro-1,8-naphthyridine-1(2H)-carboxamide] | – | –
12 | 13 | CCN(Cc1cc2c(nc1C=O)N(C(=O)Nc1cc(NC)c(C#N)cn1)CCC2)C(=O)CN(C)C [N-(5-cyano-4-(methylamino)pyridin-2-yl)-6-((2-(dimethylamino)-N-ethylacetamido)methyl)-7-formyl-3,4-dihydro-1,8-naphthyridine-1(2H)-carboxamide] | – | –
1.3 | 5.6 | CC(C)Oc1cc(NC(=O)N2CCCc3cc(CN4CCOC4=O)c(C=O)nc32)ncc1C#N [N-(5-cyano-4-isopropoxypyridin-2-yl)-7-formyl-6-((2-oxooxazolidin-3-yl)methyl)-3,4-dihydro-1,8-naphthyridine-1(2H)-carboxamide] | – | –
0.6 | 4 | CCC(=O)N(C)Cc1cc2c(nc1C=O)N(C(=O)Nc1cc(NCCOC)c(C#N)cn1)CCC2 [N-(5-cyano-4-((2-methoxyethyl)amino)pyridin-2-yl)-7-formyl-6-((N-methylpropionamido)methyl)-3,4-dihydro-1,8-naphthyridine-1(2H)-carboxamide] | – | –

The remaining lines, values behind:

Compound | IC50 [1, 2] [nM] | IC50 (Tel-FGFR4; [3]) [nM] | IC50 [1, 4] [nM] | IC50 (Tel-FGFR4; [5])
COC[C@H](C)Nc1cc(NC(=O)N2CCCc3cc(CN(C)C(C)=O)c(C=O)nc32)ncc1C#N [(S)-N-(5-cyano-4-((1-methoxypropan-2-yl)amino)pyridin-2-yl)-7-formyl-6-((N-methylacetamido)methyl)-3,4-dihydro-1,8-naphthyridine-1(2H)-carboxamide] | 1 | 4.2 | – | –
COCCNc1cc(NC(=O)N2CCCc3cc(CN(C)C(=O)CN(C)C)c(C=O)nc32)ncc1C#N [N-(5-cyano-4-((2-methoxyethyl)amino)pyridin-2-yl)-6-((2-(dimethylamino)-N-methylacetamido)methyl)-7-formyl-3,4-dihydro-1,8-naphthyridine-1(2H)-carboxamide] | 0.2 | 6.1 | – | –
CN1CCN(Cc2cc3c(nc2C=O)N(C(=O)Nc2cc(OCCO)c(C#N)cn2)CCC3)C(=O)C1 [Example 199, N-(5-cyano-4-(2-hydroxyethoxyl)pyridin-2-yl)-7-formyl-6-((4-methyl-2-oxopiperazin-1-yl)methyl)-3,4-dihydro-1,8-naphthyridine-1(2H)-carboxamide] | – | – | 2.3 | 19.3 nM
CCN1CCN(Cc2cc3c(nc2C=O)N(C(=O)Nc2cc(NCCOC)c(C#N)cn2)CCC3)C(=O)C1 [N-(5-cyano-4-((2-methoxyethyl)amino)pyridin-2-yl)-6-((4-ethyl-2-oxopiperazin-1-yl)methyl)-7-formyl-3,4-dihydro-1,8-naphthyridine-1(2H)-carboxamide] | 1.6 | 9.8 | – | –
CC(=O)N(C)Cc1cc2c(nc1C=O)N(C(=O)Nc1cc(OCC(C)C)c(C#N)cn1)CCC2 [N-(5-cyano-4-isobutoxypyridin-2-yl)-7-formyl-6-((N-methylacetamido)methyl)-3,4-dihydro-1,8-naphthyridine-1(2H)-carboxamide] | 1.3 | 6 | – | –
COCCNc1cc(NC(=O)N2CCC(O)c3cc(CN4CCN(C)CC4=O)c(C=O)nc32)ncc1C#N (stereo not shown) [N-(5-cyano-4-((2-methoxyethyl)amino)pyridin-2-yl)-7-formyl-4-hydroxy-6-((4-methyl-2-oxopiperazin-1-yl)methyl)-3,4-dihydro-1,8-naphthyridine-1(2H)-carboxamide] | 1.8 | 51.3 | – | –
O=Cc1ccc2c(n1)N(C(=O)Nc1cc(Cl)c(Cl)cn1)CCC2 [Example 2, N-(4,5-dichloropyridin-2-yl)-7-formyl-3,4-dihydro-1,8-naphthyridine-1(2H)-carboxamide] | – | – | 30 | > 3000 nM
O=Cc1nc2c(cc1CO)CCCN2C(=O)Nc1ccc(F)cn1 [Example 76, N-(5-fluoropyridin-2-yl)-7-formyl-6-(hydroxymethyl)-3,4-dihydro-1,8-naphthyridine-1(2H)-carboxamide] | – | – | 620 | 1610 nM and > 3000 nM
COC[C@H](C)Oc1nc(NC(=O)N2CCCc3cc(CO)c(C=O)nc32)ncc1Cl [Example 58, (S)-N-(5-chloro-4-((1-methoxypropan-2-yl)oxy)pyrimidin-2-yl)-7-formyl-6-(hydroxymethyl)-3,4-dihydro-1,8-naphthyridine-1(2H)-carboxamide] | – | – | 160 | 898 nM
CC(C)Oc1cc(NC(=O)N2CCCc3cc(CN4CCN(C)C(=O)C4)c(C=O)nc32)ncc1C#N [N-(5-cyano-4-isopropoxypyridin-2-yl)-7-formyl-6-((4-methyl-3-oxopiperazin-1-yl)methyl)-3,4-dihydro-1,8-naphthyridine-1(2H)-carboxamide] | 1.7 | 17 | – | –
N#Cc1cnc(NC(=O)N2CCCc3cc(CO)c(C=O)nc32)nc1O[C@H]1CCOC1 [Example 70, (S)-N-(5-cyano-4-((tetrahydrofuran-3-yl)oxy)pyrimidin-2-yl)-7-formyl-6-(hydroxymethyl)-3,4-dihydro-1,8-naphthyridine-1(2H)-carboxamide] | – | – | 27 | 43 nM
COCCNc1cc(NC(=O)N2CCCc3cc(CN4C(=O)CN(C)CC4(C)C)c(C=O)nc32)ncc1C#N [N-(5-cyano-4-((2-methoxyethyl)amino)pyridin-2-yl)-7-formyl-6-((2,2,4-trimethyl-6-oxopiperazin-1-yl)methyl)-3,4-dihydro-1,8-naphthyridine-1(2H)-carboxamide] | 1.4 | 11 | – | –
N#Cc1cnc(NC(=O)N2CCCc3ccc(C=O)nc32)cc1C#N [Example 17, N-(4,5-dicyanopyridin-2-yl)-7-formyl-3,4-dihydro-1,8-naphthyridine-1(2H)-carboxamide] | – | – | 40 | 914 nM
N#Cc1cnc(NC(=O)N2CCCc3ccc(C=O)nc32)cc1Cl [Example 24, N-(4-chloro-5-cyanopyridin-2-yl)-7-formyl-3,4-dihydro-1,8-naphthyridine-1(2H)-carboxamide] | – | – | 24 | > 3000 nM
O=Cc1nc2c(cc1CO)CCCN2C(=O)Nc1ncc(Cl)c(O[C@H]2CCOC2)n1 [Example 69, (S)-N-(5-chloro-4-((tetrahydrofuran-3-yl)oxy)pyrimidin-2-yl)-7-formyl-6-(hydroxymethyl)-3,4-dihydro-1,8-naphthyridine-1(2H)-carboxamide] | – | – | 54 | 95 nM
CC(=O)N(C)Cc1cc2c(nc1C=O)N(C(=O)Nc1cc(SC(C)C)c(C#N)cn1)CCC2 [Example 240, N-(5-cyano-4-(isopropylthio)pyridin-2-yl)-7-formyl-6-((N-methylacetamido)methyl)-3,4-dihydro-1,8-naphthyridine-1(2H)-carboxamide] | – | – | < 0.1 | 11.1 nM
N#Cc1cnc(NC(=O)N2CCCc3ccc(C=O)nc32)cc1C1=CCOCC1 [Example 30, N-(5-cyano-4-(3,6-dihydro-2H-pyran-4-yl)pyridin-2-yl)-7-formyl-3,4-dihydro-1,8-naphthyridine-1(2H)-carboxamide] | – | – | 5.5 | 428 nM
COC(C)(C)CNc1cc(NC(=O)N2CCCc3cc(CN(C)C(C)=O)c(C=O)nc32)ncc1C#N [N-(5-cyano-4-((2-methoxy-2-methylpropyl)amino)pyridin-2-yl)-7-formyl-6-((N-methylacetamido)methyl)-3,4-dihydro-1,8-naphthyridine-1(2H)-carboxamide] | 0.7 | 4.9 | – | –
